According to patent publication US20250186391A1, “ORAL COMPLEMENT FACTOR D INHIBITORS” (BioCryst Pharmaceuticals, Inc., priority 2019, published 2025):

biological target: Factor D (Homo sapiens (Human), UniProt P00746); assay: Factor D esterolytic assay; assay type: biochemical; details: Z-Lys-SBzl substrate, 100 mM HEPES, 500 mM NaCl, pH 7.5, 10% DMSO; tested a minimum of three times; read-out: Measured Ki (IC50) Value for Compounds: IC50
Method in brief: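 Buffer was 100 mM HEPES, 500 mM NaCl, pH 7.5 with 10% DMSO. Compound and Factor D were combined, then Z-Lys-SBzl (1.29 mM) was added either at once or following room-temperature incubation. Rates came from DTNB colour at 405 nm minus 690 nm over 600 s, with percent inhibition giving IC50 over at least three tests.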

Factor D, sequence (P00746 26-253): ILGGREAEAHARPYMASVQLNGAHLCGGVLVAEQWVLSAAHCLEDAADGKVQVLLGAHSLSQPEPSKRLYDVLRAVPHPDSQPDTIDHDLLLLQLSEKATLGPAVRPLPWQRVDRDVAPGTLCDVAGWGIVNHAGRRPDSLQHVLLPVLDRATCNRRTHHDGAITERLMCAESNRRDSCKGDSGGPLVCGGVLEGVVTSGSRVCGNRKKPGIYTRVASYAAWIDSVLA

| Structure (SMILES) | IC50 [nM] |
| --- | --- |
| COc1ccc(CC(=O)O)c(OCc2coc3ccc(-c4ccnc(CN)c4F)cc23)c1 [Compound 71d, 2-(2-((5-(2-(aminomethyl)-3-fluoropyridin-4-yl)benzofuran-3-yl)methoxy)-4-methoxyphenyl)acetic acid] | < 1000 |
| Cn1nc(NC(=O)c2ccccc2CC(=O)O)c2cc(-c3cccc(CN)c3)ccc21 [Compound 74d, 2-(2-((5-(3-(aminomethyl)phenyl)-1-methyl-1H-indazol-3-yl)carbamoyl)phenyl)acetic acid] | < 1000 |
| CC(C)(C)OC(=O)n1cc(COc2ccccc2CC(=O)O)c2cc(-c3cccc(CN)c3)ccc21 [Compound 75d, 2-(2-((5-(3-(aminomethyl)phenyl)-1-(tert-butoxycarbonyl)-1H-indol-3-yl)methoxy)phenyl)acetic acid] | < 1000 |
| CC(C)(C)OC(=O)n1cc(Cc2cccc(CC(=O)O)c2O)c2cc(-c3cccc(CN)c3)ccc21 [Compound 75e, 2-(3-((5-(3-(aminomethyl)phenyl)-1-(tert-butoxycarbonyl)-1H-indol-3-yl)methyl)-2-hydroxyphenyl)acetic acid] | > 10000 |
| NCc1cccc(-c2cc(OC[C@H]3CCCO3)c3occ(COc4ccccc4CC(=O)O)c3c2)c1 [Compound 76i, (R)-2-(2-((5-(3-(aminomethyl)phenyl)-7-((tetrahydrofuran-2-yl)methoxy)benzofuran-3-yl)methoxy)phenyl)acetic acid] | < 1000 |
| Cn1nc(Nc2ccccc2CC(=O)O)c2cc(-c3cccc(CN)c3)ccc21 [Compound 77d, 2-(2-((5-(3-(aminomethyl)phenyl)-1-methyl-1H-indazol-3-yl)amino)phenyl)acetic acid] | > 10000 |
| NCc1cccc(-c2ccc3[nH]nc(C(=O)Nc4ccccc4CC(=O)O)c3c2)c1 [Compound 78e, 2-(2-(5-(3-(aminomethyl)phenyl)-1H-indazole-3-carboxamido)phenyl)acetic acid] | < 1000 |
| NCc1cccc(-c2cc(CN3CCOCC3)c3occ(COc4ccccc4CC(=O)O)c3c2)c1 [Compound 79h, 2-(2-((5-(3-(aminomethyl)phenyl)-7-(morpholinomethyl)benzofuran-3-yl)methoxy)phenyl)acetic acid] | < 1000 |
| CC(C)(C)OC(=O)Nc1ccc(CC(=O)O)c(OCc2coc3ccc(-c4cccc(CN)c4)cc23)c1 [Compound 83h, 2-(2-((5-(3-(aminomethyl)phenyl)benzofuran-3-yl)methoxy)-4-((tert-butoxycarbonyl)amino)phenyl)acetic acid] | < 1000 |
| NCc1cccc(-c2ccc3occ(COc4cc(N)ccc4CC(=O)O)c3c2)c1 [Compound 84b, 2-(4-amino-2-((5-(3-(aminomethyl)phenyl)benzofuran-3-yl)methoxy)phenyl)acetic acid] | < 1000 |
| CC(C)(C)OC(=O)c1oc2ccc(-c3cccc(CN)c3)cc2c1COc1ccccc1CC(=O)O [Compound 86b, 2-(2-((5-(3-(aminomethyl)phenyl)-2-(tert-butoxycarbonyl)benzofuran-3-yl)methoxy)phenyl)acetic acid] | < 1000 |
| NCc1cccc(-c2cc(CN3CCC(F)(F)CC3)c3occ(COc4ccccc4CC(=O)O)c3c2)c1 [Compound 89e, 2-(2-((5-(3-(aminomethyl)phenyl)-7-((4,4-difluoropiperidin-1-yl)methyl)benzofuran-3-yl)methoxy)phenyl)acetic acid] | < 1000 |
| NCc1cccc(-c2ccc3occ(COc4c(N)cccc4CC(=O)O)c3c2)c1 [Compound 90h, 2-(3-amino-2-((5-(3-(aminomethyl)phenyl)benzofuran-3-yl)methoxy)phenyl)acetic acid] | < 1000 |
| CC(C)(C)OC(=O)Nc1cccc(CC(=O)O)c1OCc1coc2ccc(-c3cccc(CN)c3)cc12 [Compound 91a, 2-(2-((5-(3-(aminomethyl)phenyl)benzofuran-3-yl)methoxy)-3-((tert-butoxycarbonyl)amino)phenyl)acetic acid] | < 1000 |
| CCOC(=O)Nc1cc(-c2cccc(CN)c2)cc2c(COc3ccccc3CC(=O)O)c(C(=O)O)oc12 [Compound 102c, 5-(3-(aminomethyl)phenyl)-3-((2-(carboxymethyl)phenoxy)methyl)-7-((ethoxycarbonyl)amino)benzofuran-2-carboxylic acid] | < 1000 |
| COc1cccc(CC(=O)O)c1OCc1coc2ccc(-c3cccc(CN)c3)cc12 [Compound 104e, 2-(2-((5-(3-(aminomethyl)phenyl)benzofuran-3-yl)methoxy)-3-methoxyphenyl)acetic acid] | < 1000 |
| Cc1ccc(OCc2coc3ccc(-c4cccc(CN)c4)cc23)c(CC(=O)O)c1 [Compound 105d, 2-(2-((5-(3-(aminomethyl)phenyl)benzofuran-3-yl)methoxy)-5-methylphenyl)acetic acid] | < 1000 |

Results, then the compound that gave them:

| IC50 [nM] | Structure (SMILES) |
| --- | --- |
| 1000 to 10000 | Cc1cc2occ(COc3ccccc3CC(=O)O)c2cc1-c1cccc(CN)c1 [Compound 70f, 2-(2-((5-(3-(aminomethyl)phenyl)-6-methylbenzofuran-3-yl)methoxy)phenyl)acetic acid] |
| < 1000 | Cn1cc(-c2cc(-c3cccc(CN)c3)cc3c(COc4ccccc4CC(=O)O)coc23)cn1 [Compound 72h, 2-(2-((5-(3-(aminomethyl)phenyl)-7-(1-methyl-1H-pyrazol-4-yl)benzofuran-3-yl)methoxy)phenyl)acetic acid] |
| 1000 to 10000 | NCc1cccc(-c2ccc3occ(Cc4ccccc4CC(=O)O)c3c2)c1 [Compound 73f, 2-(2-((5-(3-(aminomethyl)phenyl)benzofuran-3-yl)methyl)phenyl)acetic acid] |
| < 1000 | NCc1cccc(-c2ccc3c(c2)c(COc2ccccc2CC(=O)O)nn3C2CCCCO2)c1 (stereo not shown) [Compound 80d, 2-(2-((5-(3-(aminomethyl)phenyl)-1-(tetrahydro-2H-pyran-2-yl)-1H-indazol-3-yl)methoxy)phenyl)acetic acid] |
| < 1000 | NCc1cccc(-c2ccc3[nH]nc(COc4ccccc4CC(=O)O)c3c2)c1 [Compound 81a, 2-(2-((5-(3-(aminomethyl)phenyl)-1H-indazol-3-yl)methoxy)phenyl)acetic acid] |
| < 1000 | CN(C)Cc1cc(-c2cccc(CN)c2)cc2c(COc3ccccc3CC(=O)O)coc12 [Compound 82e, 2-(2-((5-(3-(aminomethyl)phenyl)-7-((dimethylamino)methyl)benzofuran-3-yl)methoxy)phenyl)acetic acid] |
| < 1000 | NCc1cccc(-c2cc(NCC3CC3)c3occ(COc4ccccc4CC(=O)O)c3c2)c1 [Compound 85c, 2-(2-((5-(3-(aminomethyl)phenyl)-7-((cyclopropylmethyl)amino)benzofuran-3-yl)methoxy)phenyl)acetic acid] |
| < 1000 | NCc1cccc(-c2cc(N)c3oc(C(=O)O)c(COc4ccccc4CC(=O)O)c3c2)c1 [Compound 87c, 7-amino-5-(3-(aminomethyl)phenyl)-3-((2-(carboxymethyl)phenoxy)methyl)benzofuran-2-carboxylic acid] |
| < 1000 | NCc1cccc(-c2ccc3onc(COc4ccccc4CC(=O)O)c3c2)c1 [Compound 88e, 2-(2-((5-(3-(aminomethyl)phenyl)benzo[d]isoxazol-3-yl)methoxy)phenyl)acetic acid] |
| < 1000 | NCc1cccc(-c2cc(COc3ccccc3)c3occ(COc4ccccc4CC(=O)O)c3c2)c1 [Compound 92e, 2-(2-((5-(3-(aminomethyl)phenyl)-7-(phenoxymethyl)benzofuran-3-yl)methoxy)phenyl)acetic acid] |
| < 1000 | NCc1cccc(-c2ccc3snc(COc4ccccc4CC(=O)O)c3c2)c1 [Compound 93e, 2-(2-((5-(3-(aminomethyl)phenyl)benzo[d]isothiazol-3-yl)methoxy)phenyl)acetic acid] |
| > 10000 | NCc1cccc(-c2ccc3c(COc4ccccc4CC(=O)O)coc3c2)c1 [Compound 94d, 2-(2-((6-(3-(aminomethyl)phenyl)benzofuran-3-yl)methoxy)phenyl)acetic acid] |
| > 10000 | NCc1cccc(-c2ccc3c(COc4ccccc4CC(=O)O)coc3c2)c1F [Compound 95b, 2-(2-((6-(3-(aminomethyl)-2-fluorophenyl)benzofuran-3-yl)methoxy)phenyl)acetic acid] |
| > 10000 | NCc1cccc(-c2coc3c(COc4ccccc4CC(=O)O)cccc23)c1 [Compound 96e, 2-(2-((3-(3-(aminomethyl)phenyl)benzofuran-7-yl)methoxy)phenyl)acetic acid] |
| > 10000 | NCc1cccc(-c2cccc3occ(COc4ccccc4CC(=O)O)c23)c1 [Compound 97h, 2-(2-((4-(3-(aminomethyl)phenyl)benzofuran-3-yl)methoxy)phenyl)acetic acid] |
| < 1000 | NCc1cccc(-c2cc3cccc(COc4ccccc4CC(=O)O)c3o2)c1 [Compound 98g, 2-(2-((2-(3-(aminomethyl)phenyl)benzofuran-7-yl)methoxy)phenyl)acetic acid] |
| > 10000 | NCc1cccc(-c2cccc3ccc(COc4ccccc4CC(=O)O)cc23)c1 [Compound 99d, 2-(2-((8-(3-(aminomethyl)phenyl)naphthalen-2-yl)methoxy)phenyl)acetic acid] |
| < 1000 | NCc1cccc(-c2ccc3cccc(COc4ccccc4CC(=O)O)c3c2)c1 [Compound 100d, 2-(2-((7-(3-(aminomethyl)phenyl)naphthalen-1-yl)methoxy)phenyl)acetic acid] |
| < 1000 | NCc1cccc(-c2ccc3scc(COc4ccccc4CC(=O)O)c3c2)c1 [Compound 101d, 2-(2-((5-(3-(aminomethyl)phenyl)benzo[b]thiophen-3-yl)methoxy)phenyl)acetic acid] |
| < 1000 | NCc1cccc(-c2ccc3oc(C(N)=O)c(COc4ccccc4CC(=O)O)c3c2)c1 [Compound 103c, 2-(2-((5-(3-(aminomethyl)phenyl)-2-carbamoylbenzofuran-3-yl)methoxy)phenyl)acetic acid] |
